# Test results as given in publication PMC6787515 (Journal of Cellular and Molecular Medicine, 2019).
# What was measured:
# Type in all cases: biochemical, Staphylococcus aureus
# β‐lactamase N1 [1] = molecular target: T1, β‐lactamase N1; assay: nitrocefin hydrolysis assay, purified mutant enzyme
# T1 construct: gene rnjB
# β‐lactamase N1 [2] = molecular target: T1, β‐lactamase N1; assay: nitrocefin hydrolysis assay, purified recombinant enzyme
# β‐lactamase N1 [3] = molecular target: T1, β‐lactamase N1; assay: nitrocefin hydrolysis assay, purified mutant enzyme; remark: listed apart in the source
smiles,measurement,setting,value
"O=C(O[C@@H]1Cc2c(O)cc(O)cc2O[C@@H]1c1cc(O)c(=O)c2c(O)c(O)cc([C@H]3Oc4cc(O)cc(O)c4C[C@H]3OC(=O)c3cc(O)c(O)c(O)c3)c2c1)c1cc(O)c(O)c(O)c1 [TFDG, Theaflavin‐3,3´‐digallate]",IC50,β‐lactamase N1 [1],30.13 µg/mL
same,IC50,β‐lactamase N1 [2],5.82 µg/mL
same,IC50,β‐lactamase N1 [3],28.91 µg/mL
